# Test results reported in US6864246B2, “Anilide and cyclodextrin complexes, their preparation and their use as medicine in particular for treating dyslipidemiae” (Pierre Fabre Medicament, priority 2001, dated 2005).
# Where two headings read alike, the source gives them in different places.
# How the values were obtained:
# [1] = Solubility at saturation of F12511 in solvents at 25° C.; assay type: physicochemical; conditions: thermodynamic from solid
# Protocol: By way of example, the table below gives some characteristic solubilities at saturation, at 25° C.: […]
# [2] = 1 h
# physchem = conditions: 25 °C, aqueous with cosolvent or surfactant or cyclodextrin, thermodynamic from solid
# [3] = 25° C.; cited from earlier work
# [4] = Amount of F12511 solubilized in a solution of sodium lauryl sulfate at 5%
Structure (SMILES),"solubility ([1]; Macrogol 400, 25 °C, organic solvent or mixture, Macrogol 400, 25° C., read-out: Solubility at saturation) [µg/mL]","solubility ([1]; corn oil, 25 °C, oil or lipid, Corn oil, 25° C., read-out: Solubility at saturation) [µg/mL]","solubility ([1]; ethanol, 25 °C, organic solvent or mixture, Ethanol, 25° C., read-out: Solubility at saturation) [µg/mL]","solubility ([1]; ethyl alcohol at 95%, 25 °C, organic solvent or mixture, ethyl alcohol at 95%, read-out: Solubility at saturation) [µg/mL]","solubility ([1]; water, 25 °C, water, Water, 25° C., limit of analytical detection, read-out: Solubility at saturation) [µg/mL]","solubility ([1]; water, 25 °C, water, water, limit of analytical detection, read-out: Solubility at saturation in water) [µg/mL]",Amount of F12511 solubilized in a solution of sodium lauryl sulfate at 5% [2] [µg/mL],solubility at 2 h (physchem; Amount of F12511 solubilized) [µg/mL],solubility at 5 min (physchem; [4]) [µg/mL],solubility at 30 min (physchem; [4]) [µg/mL],solubility at 1 h (physchem; [4]) [µg/mL],solubility at 2 h (physchem; [4]) [µg/mL],Water-solubility [3]
"CCCCCCCCCCCCS[C@H](C(=O)Nc1cc(C)c(O)c(C)c1C)c1ccccc1 [Example F12511, (S)-2′,3′,5′-trimethyl-4′-hydroxy-α-dodecylthiophenylacetanilide]",1000,300,7000,≤ 2000,< 0.05,< 0.05,5,~10,1,3,5,11,–
OC[C@H]1O[C@@H]2O[C@H]3[C@H](O)[C@@H](O)[C@@H](O[C@H]4[C@H](O)[C@@H](O)[C@@H](O[C@H]5[C@H](O)[C@@H](O)[C@@H](O[C@H]6[C@H](O)[C@@H](O)[C@@H](O[C@H]7[C@H](O)[C@@H](O)[C@@H](O[C@H]1[C@H](O)[C@H]2O)O[C@@H]7CO)O[C@@H]6CO)O[C@@H]5CO)O[C@@H]4CO)O[C@@H]3CO [α-cyclodextrin],–,–,–,–,–,–,–,–,–,–,–,–,"14.2 g % ml,"
